Laboratory results as given in paper PMC10341786 (International Journal of Molecular Sciences, 2023).

Key:
in vitro [1] = settings: pig
WNV = assay: microbe, parasite or virus in culture; type: cell-based, West Nile virus strain Strix nebulosa-12; settings: for EC50: West Nile virus, Vero, read-out: WNV EC50
TBEV = assay: microbe, parasite or virus in culture; type: cell-based, Tick-borne encephalitis virus strain Absettarov; settings: Tick-borne encephalitis virus, PEK, read-out: TBEV EC50
in vitro [2] = settings: pig; remark: listed apart in the source
in vitro [3] = settings: African green monkey
YFV = assay: microbe, parasite or virus in culture; type: cell-based, yellow fever virus strain 17D; settings: Yellow fever virus, read-out: YFV EC50
in vitro [4] = settings: African green monkey; remark: listed apart in the source
DENV-3 = settings: cited from earlier work
DENV-1 = settings: cited from earlier work
DENV-2 = settings: cited from earlier work

| SMILES | CC50 (in vitro [1]) [µM] | melting point [°C] | EC50 (WNV) [µM] | acute and chronic cytotoxicity in Vero cells (in words) (Vero cells) | EC50 (TBEV) [µM] | CC50 (in vitro [2]) [µM] | CC50 (in vitro [3]) [µM] | EC50 (YFV) [µM] | CC50 (in vitro [4]) [µM] | cytotoxicity against PEK cells during 7 days of incubation (in words) (PEK cells) | EC50 (DENV-3) [µM] | EC50 (DENV-1) [µM] | EC50 (DENV-2) [µM] | anti-WNV activity (in words) (WNV) |
| --- | --- | --- | --- | --- | --- | --- | --- | --- | --- | --- | --- | --- | --- | --- |
| O=[N+]([O-])c1ccccc1S(=O)(=O)N(C1=NOC2(CCCCCCC2)C1)S(=O)(=O)c1ccccc1[N+](=O)[O-] [4h, 2-Nitro-N-((2-nitrophenyl)sulfonyl)-N-(1-oxa-2-azaspiro[4.7]dodec-2-en-3-yl)benzenesulfonamide] | > 50 | 155 to 157 | 7.8 ± 1 | only acute toxic | 20 ± 11 | > 50 |  |  |  |  |  |  |  |  |
| O=S(=O)(c1cccs1)N(C1=NOC2CCCCCCC12)S(=O)(=O)c1cccs1 (centres unmarked) [5k, N-(3a,4,5,6,7,8,9,9a-Octahydrocycloocta[d]isoxazol-3-yl)-N-(thiophen-2-ylsulfonyl)thiophene-2-sulfonamide] | > 50 | 131 to 132 | 18 ± 4 | both acute and chronic cytotoxicity | 20 ± 3 | > 50 |  |  |  |  |  |  |  |  |
| O=S(=O)(NC1=NOC2(CCCCCCC2)C1)c1ccc2ccccc2c1 [3j] | > 50 |  | 20.3 ± 0.3 | both acute and chronic cytotoxicity | 20 ± 11 | > 50 |  |  |  |  |  |  |  |  |
| O=S(=O)(Cc1ccccc1)NC1=NOC2(CCCCCCC2)C1 [3b] | > 50 |  | 9.9 ± 1.5 |  | 13 ± 8 | > 50 | > 50 | 24 ± 11 | > 50 |  |  |  |  |  |
| O=[N+]([O-])c1ccc(S(=O)(=O)N(C2=NOC3CCCCCCC23)S(=O)(=O)c2ccc([N+](=O)[O-])cc2)cc1 (centres unmarked) [5i, 4-Nitro-N-((4-nitrophenyl)sulfonyl)-N-(3a,4,5,6,7,8,9,9a-octahydrocycloocta[d]isoxazol-3-yl)benzenesulfonamide] | 41 ± 1.8 | 139 to 140 | 19 ± 11 |  | 19 ± 4 | > 50 | > 50 |  | > 50 | slightly toxic |  |  |  |  |
| CC(C)CCN1C(=O)[C@]2(CC(=O)Nc3c2nnn3[C@@H](C)c2ccc(Cl)cc2)c2cc(Cl)ccc21 [JMX0254] |  |  |  |  |  |  |  |  |  |  | 0.035 | 0.78 | 0.16 |  |
| Cc1cc(C)c(S(=O)(=O)N(C2=NOC3(CCCCCCC3)C2)S(=O)(=O)c2c(C)cc(C)cc2C)c(C)c1 [4e, N-(Mesitylsulfonyl)-2,4,6-trimethyl-N-(1-oxa-2-azaspiro[4.7]dodec-2-en-3-yl)benzenesulfonamide] | > 50 | 180 to 182 | 4.8 ± 1 |  | 12 ± 7 | > 50 | > 50 |  | > 50 |  |  |  |  |  |
| O=[N+]([O-])c1ccc(S(=O)(=O)N(C2=NOC3(CCCCCCC3)C2)S(=O)(=O)c2ccc([N+](=O)[O-])cc2)cc1 [4i, 4-Nitro-N-((4-nitrophenyl)sulfonyl)-N-(1-oxa-2-azaspiro[4.7]dodec-2-en-3-yl)benzenesulfonamide] | > 50 | 178 to 180 | 5.3 ± 1 | both acute and chronic cytotoxicity | 2 ± 0.5 | > 50 |  |  |  |  |  |  |  |  |
| O=S(=O)(c1cccnc1)N(C1=NOC2CCCCCCC12)S(=O)(=O)c1cccnc1 (centres unmarked) [5l, N-(3a,4,5,6,7,8,9,9a-Octahydrocycloocta[d]isoxazol-3-yl)-N-(pyridin-3-ylsulfonyl)pyridine-3-sulfonamide] | > 50 | 150 to 151 | > 50 |  | 36 ± 4 | > 50 | > 50 |  | > 50 |  |  |  |  | complete loss of anti-WNV activity |
